Literature values, collected in patent US20220088213A1, “DRUG DELIVERY SYSTEM USING PH-DEPENDENT CELL-PENETRATING PEPTIDES, AND COMPOSITE THEREOF WITH DRUG” (priority 2019, published 2022).
Like-named read-outs stand apart in the source and are kept apart here.

Tested on: cell membrane
Conditions: cited from earlier work

Substance	cell-penetrating activity (pH dependence)	cell membrane penetration (acidic pH conditions)	cell membrane penetration (neutral pH)
ATRAM (GLAGLAGLLGLEGLLGLPLGLLEGLWLGLELEGN; Penetrating Peptide)	exhibits cell-penetrating activity only at a slightly acidic pH	–	–
GALA	–	penetrates a cell membrane	cannot penetrate the cell membrane
